Values of other authors as cited in patent publication US6784266B2, “Dual stimuli-responsive hydrogels and their synthetic methods” (Korea Institute of Science and Technology, priority 2002, dated 2004).

Conditions: pKa stated for the sulfonamide reagent; no measurement method described

pKa: 6.7
Compound: COc1ccc(NS(=O)(=O)c2ccc(N)cc2)nn1 [sulfamethoxypyridazine]
